This assay relates to L-687,414-induced hyperlocomotion. Briefly: Reversal of L-687,414-induced hyperlocomotion (Digiscan locomotor activity). The format is in vivo, mouse. Conditions: for Inhibition, ip / inhibition in vivo at 30 mg/kg: dose ip 30 mg/kg at the same time as s.c. 50 mg/kg L-687,414, horizontal activity over 30 min; for ID50 po: dose producing 50% inhibition of L-687,414-induced hyperlocomotion, p.o. 15 min before s.c. 50 mg/kg L-687,414, doses 1-3-10 (Expl. 2: 3-10-30) mg/kg; for inhibition in vivo at 30 mg/kg: Mus musculus, 0.5 h. An excerpt:
The authors described that hyperlocomotion induced by L-687,414 was inhibited by a series of known antipsychotic drugs. […] These findings predict antipsychotic activity for the present compounds, making them useful for the treatment of positive (psychosis) and negative symptoms of schizophrenia, substance abuse, alcohol and drug addiction, obsessive-compulsive disorders, cognitive impairment, bipolar disorders, mood disorders, major depression, resistant depression, anxiety disorders, Alzheimer's disease, autism, Parkinson's disease, chronic pain, borderline personality disorder, sleep disturbances, chronic fatigue syndrome, stiffness, antiinflammatory effects in arthritis and balance problems.
The described compounds of formula I reduce L-687,414-induced hyperlocomotion. This was assessed by using a computerized Digiscan 16 Animal Activity Monitoring System (Omnitech Electronics, Columbus, Ohio) to quantify locomotor activity. Animals were kept under a 12 h light/dark cycle and experiments were performed during the light period. Each activity monitoring chamber consisted of a Plexiglas box (41×41×28 cm; W×L×H) with sawdust bedding on the floor surrounded by invisible horizontal and vertical infrared sensor beams. The test boxes were divided by a Plexiglas cross providing each mouse with 20×20 cm of moving space. Cages were connected to a Digiscan Analyzer linked to a computer that constantly collected the beam status information. Records of photocell beam interruptions for individual animals were taken every 5 min over the duration of the experimental session and the sum of the first 6 periods was used as the final parameter. Compounds were administered either p.o. 15 min before a s.c. injection of 50 mg/kg of L-687,414, or i.p. at the same time as a s.c. injection of 50 mg/kg of L-687,414. Mice were then transferred from their home cage to the recording chambers for a 15-min habituation phase allowing free exploration of the new environment. Horizontal activity was then recorded for a 30-min time period. The % inhibition of L-687,414-induced hyperlocomotion was calculated according to the equation: ((Veh+L-687,414 horizontal activity−drug+L-687,414 horizontal activity)/Veh+L−687,414 horizontal activity)×100
ID50 values, defined as doses of each compound producing 50% inhibition of L-687,414-induced hyperlocomotion, were calculated by linear regression analysis of a dose-response data using an Excel-based computer-fitting program.
As data was not presupposed to be normally distributed, groups treated with test compounds were statistically compared with the control (vehicle-treated) group using one-tailed Mann Whitney U tests. In statistics, the Mann-Whitney U test (also called the Mann-Whitney-Wilcoxon (MWW) or Wilcoxon rank-sum test) is a non-parametric statistical hypothesis test for assessing whether one of two samples of independent observations tends to have larger values than the other. It is one of the most well-known non-parametric significance tests. […] P values given in table 1 are one-tailed since only decreases in locomotion were expected and tested for (Mann, H. B., Whitney, D. R. (1947), “On a Test of Whether one of Two Random Variables is Stochastically Larger than the Other”, Annals of Mathematical Statistics, 18 (1), 50-60).

By inhibition in vivo is commonly meant the percentage by which the read-out fell short of the control.

In the case of “1,3,3-Trimethyl-6-(3-pyridin-4-yl-isoxazol-5-yl)-1,3-dihydro-indol-2-one [Example 42]”, the “Inhibition, ip” value came out at 58.4%.
On the same count and under the same terms, the result for “1,3,3-Trimethyl-6-(4-(pyridin-3-yl)-1H-imidazol-1-yl)indolin-2-one [Example 29]” reads 80.3%; that for “1-Cyclopropyl-3,3-dimethyl-6-(2-(2-methylpyridin-4-yl)oxazol-5-yl)indolin-2-one [Example 12]”, 49.1%.
The same measure, in the same setting: the same measure for “3,3-Dimethyl-6-[1-(2-methyl-4-pyridyl)imidazol-4-yl]-1-(2-methylpyrimidin-5-yl)indolin-2-one [Example 113]”: 69.9%; for “6-[1-(3-Fluoro-4-pyridyl)imidazol-4-yl]-3,3-dimethyl-1-(2-methylpyrimidin-5-yl)indolin-2-one [Example 110]”: 85.4%.
On to `CN1C(=O)C(C)(C)c2ccc(-c3ncc(-c4ccccc4)[nH]3)cc21` [Example 2, 1,3,3-Trimethyl-6-(5-phenyl-1H-imidazol-2-yl)indolin-2-one], for which the ID50 po came to 10.71 mg/kg.
As for `CN1C(=O)C(C)(C)c2ccc(-c3cnc(-c4ccncc4)[nH]3)cc21` [Example 3, 1,3,3-Trimethyl-6-(2-(pyridin-4-yl)-1H-imidazol-5-yl)indolin-2-one], the inhibition in vivo at 30 mg/kg was 58.9%.
In the case of `CN1C(=O)C(C)(C)c2ccc(-c3cnc(-c4cccnc4)o3)cc21` [Example 7, 1,3,3-Trimethyl-6-(2-(pyridin-3-yl)oxazol-5-yl)indolin-2-one], the inhibition in vivo at 30 mg/kg was found to be 83.9%.
The same measure, in the same setting: the result for `CC1(C)C(=O)N(C2CC2)c2cc(-c3cnc(-c4cccnc4)o3)ccc21` [Example 8, 1-Cyclopropyl-3,3-dimethyl-6-(2-(pyridin-3-yl)oxazol-5-yl)indolin-2-one] reads 80.5%; that for `CC1(C)C(=O)N(C2CC2)c2cc(-c3cnc(-c4ccncc4)o3)ccc21` [Example 10, 1-Cyclopropyl-3,3-dimethyl-6-(2-(pyridin-4-yl)oxazol-5-yl)indolin-2-one], 78.8%.
Same read-out and setting: the same measure for `CC1(C)C(=O)N(C2COC2)c2cc(-c3nnc(-c4ccncc4)o3)ccc21` [Example 11, 3,3-Dimethyl-1-(oxetan-3-yl)-6-(5-(pyridin-4-yl)-1,3,4-oxadiazol-2-yl)indolin-2-one]: 80.9%; for `Cc1cc(-c2cnc(-c3ccc4c(c3)N(C3CC3)C(=O)C4(C)C)o2)ccn1` [Example 19, 1-Cyclopropyl-3,3-dimethyl-6-(5-(2-methylpyridin-4-yl)oxazol-2-yl)indolin-2-one]: 55.9%.
Turning to `CN1C(=O)C(C)(C)c2ccc(-n3cnc(-c4ccncc4)c3)cc21` [Example 20, 1,3,3-Trimethyl-6-(4-(pyridin-4-yl)-1H-imidazol-1-yl)indolin-2-one], the inhibition in vivo at 30 mg/kg worked out at 64.4%.
Still for that read-out and setting: the result for `Cc1cc(-c2ncc(-c3ccc4c(c3)N(C)C(=O)C4(C)C)o2)ccn1` [Example 22, 1,3,3-Trimethyl-6-(2-(2-methylpyridin-4-yl)oxazol-5-yl)indolin-2-one] reads 55.9%.
In the case of `Cc1ccc(-c2ncc(-c3ccc4c(c3)N(C3CC3)C(=O)C4(C)C)o2)cn1` [Example 33, 1-Cyclopropyl-3,3-dimethyl-6-(2-(6-methylpyridin-3-yl)oxazol-5-yl)indolin-2-one], the ID50 po is given as 3.36 mg/kg.
Consider `CN1C(=O)C(C)(C)c2ccc(-n3cc(-c4cccnc4)cn3)cc21` [Example 41, 1,3,3-Trimethyl-6-(4-(pyridin-3-yl)-1H-pyrazol-1-yl)indolin-2-one], for which the inhibition in vivo at 30 mg/kg turned out to be 50.3%.
Still for that read-out and setting: the result for `CC1(C)C(=O)N(C2COC2)c2cc(-n3cc(-c4cccnc4)cn3)ccc21` [Example 43, 3,3-Dimethyl-1-(oxetan-3-yl)-6-(4-(pyridin-3-yl)-1H-pyrazol-1-yl)indolin-2-one] reads 47.3%; that for `CN1C(=O)C(C)(C)c2ccc(-c3coc(-c4cccnc4)n3)cc21` [Example 44, 1,3,3-Trimethyl-6-(2-(pyridin-3-yl)oxazol-4-yl)indolin-2-one], 52.1%.
With `Cc1cc(-c2nnc(-c3ccc4c(c3)N(C3COC3)C(=O)C4(C)C)o2)ccn1` [Example 49, 3,3-Dimethyl-6-(5-(2-methylpyridin-4-yl)-1,3,4-oxadiazol-2-yl)-1-(oxetan-3-yl)indolin-2-one], the ID50 po worked out at 5.02 mg/kg.
In the case of `CN1C(=O)C(C)(C)c2ccc(-c3cnn(-c4cccnc4)c3)cc21` [Example 50, 1,3,3-Trimethyl-6-(1-(pyridin-3-yl)-1H-pyrazol-4-yl)indolin-2-one], the inhibition in vivo at 30 mg/kg came out at 44%.
As for `CC1(C)C(=O)Nc2cc(-n3cc(-c4cccnc4)cn3)ccc21` [Example 51, 3,3-Dimethyl-6-(4-(pyridin-3-yl)-1H-pyrazol-1-yl)indolin-2-one], the inhibition in vivo at 30 mg/kg came to 61%.
For `CC1(C)C(=O)N(C2CC2)c2cc(-n3cc(-c4cccnc4)cn3)ccc21` [Example 52, 1-Cyclopropyl-3,3-dimethyl-6-(4-(pyridin-3-yl)-1H-pyrazol-1-yl)indolin-2-one], the inhibition in vivo at 30 mg/kg was 82.1%.
On the same count and under the same terms, the same measure for `Cc1cc(-c2cnn(-c3ccc4c(c3)N(C)C(=O)C4(C)C)c2)ccn1` [Example 54, 1,3,3-Trimethyl-6-(4-(2-methylpyridin-4-yl)-1H-pyrazol-1-yl)indolin-2-one]: 41.6%; for `Cc1cc(-c2cnn(-c3ccc4c(c3)N(C3CC3)C(=O)C4(C)C)c2)ccn1` [Example 55, 1-Cyclopropyl-3,3-dimethyl-6-(4-(2-methylpyridin-4-yl)-1H-pyrazol-1-yl)indolin-2-one]: 42.7%; for `CN1C(=O)C(C)(C)c2ccc(-n3cc(-c4ccncc4)nn3)cc21` [Example 57, 1,3,3-Trimethyl-6-(4-(pyridin-4-yl)-1H-1,2,3-triazol-1-yl)indolin-2-one]: 89.2%.
On the same count and under the same terms, the same measure for `COc1cnccc1-c1ncc(-c2ccc3c(c2)NC(=O)C3(C)C)o1` [Example 63, 6-(2-(3-Methoxypyridin-4-yl)oxazol-5-yl)-3,3-dimethylindolin-2-one]: 75%; for `Cc1ccc(-c2cnn(-c3ccc4c(c3)N(C3CC3)C(=O)C4(C)C)c2)cn1` [Example 69, 1-Cyclopropyl-3,3-dimethyl-6-(4-(6-methylpyridin-3-yl)-1H-pyrazol-1-yl)indolin-2-one]: 53.3%.
With `CN1C(=O)C(C)(C)c2ccc(-c3cn(-c4ccncc4F)cn3)cc21` [Example 73, 6-(1-(3-Fluoropyridin-4-yl)-1H-imidazol-4-yl)-1,3,3-trimethylindolin-2-one], the ID50 po came to 2.97 mg/kg.
Consider `Cc1cc(-n2cnc(-c3ccc4c(c3)N(C3CC3)C(=O)C4(C)C)c2)ccn1` [Example 74, 1-Cyclopropyl-3,3-dimethyl-6-(1-(2-methylpyridin-4-yl)-1H-imidazol-4-yl)indolin-2-one], for which the inhibition in vivo at 30 mg/kg was found to be 71.4%.
Consider `CC1(C)C(=O)N(C2CC2)c2cc(-c3cn(-c4ccncc4F)cn3)ccc21` [Example 76, 1-Cyclopropyl-6-(1-(3-fluoropyridin-4-yl)-1H-imidazol-4-yl)-3,3-dimethylindolin-2-one], for which the ID50 po is on record as <1 mg/kg.
For the compound `Cc1nc(-c2ccc3c(c2)N(C)C(=O)C3(C)C)cn1-c1ccncc1` [Example 77, 1,3,3-Trimethyl-6-(2-methyl-1-(pyridin-4-yl)-1H-imidazol-4-yl)indolin-2-one], the inhibition in vivo at 30 mg/kg is 89.4%.
Same read-out and setting: the same measure for `Cc1ccc(-c2cc(-c3ccc4c(c3)N(C)C(=O)C4(C)C)n[nH]2)cn1` [Example 80, 1,3,3-Trimethyl-6-(5-(6-methylpyridin-3-yl)-1H-pyrazol-3-yl)indolin-2-one]: 62.6%; for `Cc1cnccc1-n1cnc(-c2ccc3c(c2)N(C)C(=O)C3(C)C)c1` [Example 88, 1,3,3-Trimethyl-6-(1-(3-methylpyridin-4-yl)-1H-imidazol-4-yl)indolin-2-one]: 93.1%.
